The text below walks through data of US20250205177A1, “HONEYBEE ANTIDOTE COMPOSITION” (priority 2023, published 2025).

The subject of assay [1] is newly emerged honeybees (nurse bees) poisoned by carbaryl. As to the kind of experiment: Curcumin feeding of newly emerged (nurse) honeybees topically poisoned by carbaryl. The assay is classed as in vivo. The note with it: for mortality rate: nurse bees, indoor feeding. The protocol: (§1) […] These experiments were performed separately on newly emerged honeybees and foragers. While 0.063 ug of an insecticide was administered to the chest of each newly emerged honeybee, 0.11 ug of the insecticide was applied to each forager bee. The intoxicated honeybees were exposed to carbaryl and then fed supplementary food. While the control group consumed only sugar syrup, the experimental group consumed supplementary food containing curcumin. All honeybee groups were fed for 48 hours under controlled laboratory conditions.

The test system of assay [2] is honeybees (Apis mellifera) chronically exposed to carbaryl. As to the kind of experiment: Long-term indoor feeding with chronic oral exposure to carbaryl. The note with it: 100 ppm curcumin; for mortality rate of honeybees: 10 days. Type of assay: in vivo. The text has this: FIG. 4 is a graph of a Kaplan-Meier survival curve for test honeybees (Apis mellifera) chronically exposed to 2.5 and 5 ppm of carbaryl through oral exposure.
FIGS. 5A and 5B show graphs of the mortality rate of honeybees for 10 days after being chronically exposed to 2.5 ppm (5A) and 5 ppm (5B) of carbaryl.

The test system of assay [3] is honeybee colonies used for melon pollination. Description: Field experiment in melon greenhouses: colony strength factors. Type of assay: in vivo, honeybees. The protocol: The impact observed when adding 100 ppm of curcumin to greenhouses for growing melons was assessed. Thirty greenhouses owned by three farmers were used in this study. While one group of honeybees was given a solution supplemented with 100 ppm of curcumin (CU100), the control hives were given only 50% sugar syrup. Colony strength factors were measured every 10 days.

For assay [4], the system named is detoxification enzymes (oxidases) of honeybees. As to the kind of experiment: Gene expression / activity of detoxification enzymes 24 hours after carbaryl exposure. The note with it: 200 ppm curcumin. The assay is classed as in vivo. As for the experimental part: FIGS. 8 and 9 show graphs for explaining gene expression analysis of detoxification enzymes in SU (50% sugar syrup), CU (50% sugar syrup +200 ppm of curcumin), and the control group (ACET, exposed to only 2 ul of acetone and given sugar), 24 hours after being exposed to carbaryl.

In assay [5] the test system is foragers (field bees) poisoned by carbaryl. As to the kind of experiment: Curcumin feeding of forager (field) bees topically poisoned by carbaryl. The assay is classed as in vivo, honeybees. The note with it: indoor feeding. The protocol: as §1
[6] abbreviates: 100 ppm curcumin, melon greenhouses at Seongju, long-term.

Turning to `COc1cc(/C=C/C(=O)CC(=O)/C=C/c2ccc(O)c(OC)c2)ccc1O` [curcumin], in assay [1] (curcumin at varying concentrations after carbaryl exposure), the “mortality rate of nurse bees compared with control (in words)” value is reported as “noticeable reduction”. Besides, the mortality rate in assay [1] (50 ppm curcumin, reduced from 80) amounted to 50; in assay [1] (90 ppm curcumin, from 80), 33; in assay [1] (100 ppm curcumin, reduced from 80), 24; in assay [1] (110 ppm curcumin, from 80), 34; in assay [5] (50 ppm curcumin, reduced from 35), 24; in assay [5] (90 ppm curcumin, from 35), 24. Moreover, the mortality rate worked out at 18 in assay [5] (100 ppm curcumin, reduced from 35) and 24 in assay [5] (110 ppm curcumin, from 35). In assay [2] (Kaplan-Meier, 2.5 and 5 ppm carbaryl oral), the “survival rate of honeybees in exposure experiments to carbaryl” value is recorded as “highest”. Moreover, the “mortality rate of honeybees” value is 21% in assay [2] (chronic exposure to 2.5 ppm carbaryl, control 38%) and 55% in assay [2] (chronic exposure to 5 ppm carbaryl, control 78%). Further, the “rate of hive weight reduction” value in assay [3] (100 ppm curcumin compared with only sucrose solution) is on record as “lower”. In addition, the “number of both adult and larval honeybees” value in assay [3] (setting [6]) was “tended to increase”. Moreover, the “weight of honey storage (honey)” value in assay [3] (setting [6]) is “no change”. In assay [3] (group treated with 100 ppm curcumin), the “activities of honeybees in outdoor experiments” value is given as “excellent”. Besides, in assay [4], the “activity of the detoxification enzymes” value is recorded as “even higher level”.
